These results are taken from ChEMBL document CHEMBL3774347, “Docking and Linking of Fragments To Discover Jumonji Histone Demethylase Inhibitors” (J Med Chem, 2016).

One may read the IC50 as the midpoint of a concentration-inhibition curve. High values mean weaker potency in that assay, low ones greater potency in that assay.

In assay [1] the target is T1, Lysine-specific demethylase 4C (Homo sapiens, UniProt Q9H3R0).
T1 sequence (Q9H3R0 whole entry): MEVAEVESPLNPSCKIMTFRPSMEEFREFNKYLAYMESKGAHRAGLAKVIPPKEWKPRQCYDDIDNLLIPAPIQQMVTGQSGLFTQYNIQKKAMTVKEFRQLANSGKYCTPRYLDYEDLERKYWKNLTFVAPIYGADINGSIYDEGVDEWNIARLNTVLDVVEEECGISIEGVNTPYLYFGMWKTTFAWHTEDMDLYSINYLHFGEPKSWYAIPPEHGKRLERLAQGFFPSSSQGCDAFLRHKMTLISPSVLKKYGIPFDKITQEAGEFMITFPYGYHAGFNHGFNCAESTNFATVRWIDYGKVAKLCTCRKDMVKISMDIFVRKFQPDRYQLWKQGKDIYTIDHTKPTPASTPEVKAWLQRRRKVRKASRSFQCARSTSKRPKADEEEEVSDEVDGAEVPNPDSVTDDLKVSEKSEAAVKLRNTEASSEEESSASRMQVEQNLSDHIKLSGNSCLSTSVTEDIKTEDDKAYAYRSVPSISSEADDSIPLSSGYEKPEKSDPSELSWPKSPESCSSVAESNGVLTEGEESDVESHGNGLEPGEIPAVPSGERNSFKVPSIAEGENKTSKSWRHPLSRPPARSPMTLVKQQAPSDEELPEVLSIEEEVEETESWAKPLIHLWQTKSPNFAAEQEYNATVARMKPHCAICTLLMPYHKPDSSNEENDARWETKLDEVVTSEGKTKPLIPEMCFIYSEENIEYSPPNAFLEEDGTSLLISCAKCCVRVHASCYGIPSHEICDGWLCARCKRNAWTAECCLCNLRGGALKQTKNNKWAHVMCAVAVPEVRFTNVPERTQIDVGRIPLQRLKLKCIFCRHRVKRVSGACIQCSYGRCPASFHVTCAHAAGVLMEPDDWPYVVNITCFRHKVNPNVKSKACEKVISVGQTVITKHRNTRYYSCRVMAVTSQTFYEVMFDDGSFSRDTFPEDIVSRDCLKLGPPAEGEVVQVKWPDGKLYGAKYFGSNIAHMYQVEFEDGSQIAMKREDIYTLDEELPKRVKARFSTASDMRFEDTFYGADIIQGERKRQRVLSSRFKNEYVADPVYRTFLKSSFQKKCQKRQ
Briefly: Inhibition of N-terminal His6-tagged KDM4C (1 to 352 residues) (unknown origin) expressed in Escherichia coli Rosetta 2(DE3)pLysS using biotinylated peptide/ 2 uM alpha-ketoglutarate as substrate/cofactor preincubated for 15 mins followed by substrate addition measured after 15 mins by alphascreen assay.

Assay [2] deals with T2, Lysine-specific demethylase 2A (Homo sapiens, UniProt Q9Y2K7).
T2 sequence (Q9Y2K7 whole entry): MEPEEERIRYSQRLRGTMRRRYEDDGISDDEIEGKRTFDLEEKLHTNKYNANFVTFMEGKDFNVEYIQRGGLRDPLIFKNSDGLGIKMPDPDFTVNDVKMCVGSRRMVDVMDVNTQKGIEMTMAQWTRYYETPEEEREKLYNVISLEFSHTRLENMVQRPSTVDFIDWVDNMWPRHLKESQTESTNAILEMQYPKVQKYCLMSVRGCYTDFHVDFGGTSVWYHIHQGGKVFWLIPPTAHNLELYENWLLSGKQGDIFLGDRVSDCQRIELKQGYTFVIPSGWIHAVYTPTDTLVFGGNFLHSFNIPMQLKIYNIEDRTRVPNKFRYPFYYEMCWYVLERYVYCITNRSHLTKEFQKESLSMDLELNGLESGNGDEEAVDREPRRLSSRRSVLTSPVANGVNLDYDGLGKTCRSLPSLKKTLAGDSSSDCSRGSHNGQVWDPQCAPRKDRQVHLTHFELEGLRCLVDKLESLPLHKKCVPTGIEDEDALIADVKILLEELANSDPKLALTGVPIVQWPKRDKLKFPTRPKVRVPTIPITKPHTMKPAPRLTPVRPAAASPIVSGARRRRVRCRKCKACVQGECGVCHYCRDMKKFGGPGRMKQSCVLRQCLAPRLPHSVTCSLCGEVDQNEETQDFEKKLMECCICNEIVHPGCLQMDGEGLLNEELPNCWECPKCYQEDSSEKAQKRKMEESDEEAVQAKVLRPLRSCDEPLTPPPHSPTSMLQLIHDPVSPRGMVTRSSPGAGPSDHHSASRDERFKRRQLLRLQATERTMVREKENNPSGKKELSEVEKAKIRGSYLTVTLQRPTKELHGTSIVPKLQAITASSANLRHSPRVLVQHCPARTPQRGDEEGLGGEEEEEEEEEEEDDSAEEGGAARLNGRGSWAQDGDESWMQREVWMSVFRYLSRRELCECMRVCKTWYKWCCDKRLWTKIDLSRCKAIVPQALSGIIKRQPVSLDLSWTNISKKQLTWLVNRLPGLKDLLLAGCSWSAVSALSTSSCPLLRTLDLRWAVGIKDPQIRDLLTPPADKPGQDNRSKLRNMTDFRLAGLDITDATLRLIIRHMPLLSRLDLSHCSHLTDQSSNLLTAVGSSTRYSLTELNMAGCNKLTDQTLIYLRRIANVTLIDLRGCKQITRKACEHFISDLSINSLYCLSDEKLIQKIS
Kind of assay: Inhibition of KDM2A (unknown origin) expressed in Escherichia coli using Biotin H3 (28 to 48 residues) Me2 KDM2A Cognate Ligande/10 uM alpha-ketoglutarate as substrate/cofactor preincubated for 15 mins followed by substrate addition measured after 30 mins by alphascreen assay. A general note: Bead proximity is the source of the signal in Alpha formats.

Assay [3] has as its target Lysine-specific demethylase 5B (Homo sapiens, UniProt Q9UGL1). Kind of assay: Inhibition of KDM5B (unknown origin) expressed in Escherichia coli using H3 (1 to 21 residues) K4Me3-GGK-Biotin KDM5B Cognate Ligand/10 uM alpha-ketoglutarate as substrate/cofactor preincubated for 5 mins followed by substrate addition measured after 20 mins by alphascreen assay.

Lysine-specific demethylase 5B, sequence (Q9UGL1 whole entry, the tested form may be a part): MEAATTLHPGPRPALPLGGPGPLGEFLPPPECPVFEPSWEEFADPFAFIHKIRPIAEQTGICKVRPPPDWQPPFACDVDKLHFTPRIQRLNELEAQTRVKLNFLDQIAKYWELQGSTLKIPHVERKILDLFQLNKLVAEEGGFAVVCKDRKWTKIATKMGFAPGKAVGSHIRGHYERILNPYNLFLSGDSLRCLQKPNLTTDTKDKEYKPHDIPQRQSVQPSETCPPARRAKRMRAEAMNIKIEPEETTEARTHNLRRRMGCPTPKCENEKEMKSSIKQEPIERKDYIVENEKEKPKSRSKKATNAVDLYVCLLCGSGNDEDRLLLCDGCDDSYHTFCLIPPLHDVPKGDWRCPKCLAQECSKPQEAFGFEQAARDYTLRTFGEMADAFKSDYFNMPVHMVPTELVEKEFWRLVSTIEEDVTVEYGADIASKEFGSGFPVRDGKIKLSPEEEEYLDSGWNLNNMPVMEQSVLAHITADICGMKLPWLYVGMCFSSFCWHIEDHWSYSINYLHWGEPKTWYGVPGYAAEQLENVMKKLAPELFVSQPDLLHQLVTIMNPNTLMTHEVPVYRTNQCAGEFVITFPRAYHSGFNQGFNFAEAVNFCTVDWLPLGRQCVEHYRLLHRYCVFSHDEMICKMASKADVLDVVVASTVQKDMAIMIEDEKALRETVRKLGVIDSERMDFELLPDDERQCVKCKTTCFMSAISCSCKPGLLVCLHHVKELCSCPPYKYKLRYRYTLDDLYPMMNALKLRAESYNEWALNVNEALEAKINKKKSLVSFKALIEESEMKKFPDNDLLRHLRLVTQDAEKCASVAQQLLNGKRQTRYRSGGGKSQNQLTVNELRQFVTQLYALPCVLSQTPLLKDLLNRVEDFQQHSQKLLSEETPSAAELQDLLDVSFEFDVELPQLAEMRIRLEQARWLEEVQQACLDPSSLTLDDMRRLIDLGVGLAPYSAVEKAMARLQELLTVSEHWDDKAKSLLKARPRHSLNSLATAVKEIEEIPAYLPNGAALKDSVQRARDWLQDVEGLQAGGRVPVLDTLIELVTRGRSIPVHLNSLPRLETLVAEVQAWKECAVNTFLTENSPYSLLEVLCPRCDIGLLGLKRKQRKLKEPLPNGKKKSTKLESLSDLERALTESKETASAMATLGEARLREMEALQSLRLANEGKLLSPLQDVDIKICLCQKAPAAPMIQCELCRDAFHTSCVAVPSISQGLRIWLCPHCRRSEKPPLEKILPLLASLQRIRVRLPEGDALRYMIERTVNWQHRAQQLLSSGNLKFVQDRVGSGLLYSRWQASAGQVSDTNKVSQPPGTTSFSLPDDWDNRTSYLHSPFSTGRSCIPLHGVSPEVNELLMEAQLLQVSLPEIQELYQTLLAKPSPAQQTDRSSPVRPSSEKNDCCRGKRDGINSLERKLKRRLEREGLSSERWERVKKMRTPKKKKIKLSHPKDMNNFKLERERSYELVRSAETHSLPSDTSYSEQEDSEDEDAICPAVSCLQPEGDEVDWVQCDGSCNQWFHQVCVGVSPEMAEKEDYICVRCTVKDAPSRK

Consider `Cc1cc(C(=O)Nc2ccc(O)c(-c3cc(C(=O)O)ccn3)c2)no1`, for which the IC50 in assay [1] amounted to 5.5 µM; in assay [2], 76 µM; in assay [3] it was 2.7 µM.
For `CC(=O)Nc1ccc(O)c(-c2cc(C(=O)O)ccn2)c1` the same measures were 15 µM, more than 100 µM and 72 µM.
For `COCC(=O)Nc1ccc(O)c(-c2cc(C(=O)O)ccn2)c1` the same measures were 3.8 µM, 91 µM and 12 µM.
`COc1cccc(CC(=O)Nc2ccc(O)c(-c3cc(C(=O)O)ccn3)c2)c1`: the IC50 in assay [1] was found to be 9.9 µM; in assay [2], 89 µM; in assay [3], 22 µM.
With `O=C(O)c1ccnc(-c2cc(NC(=O)c3ccc(O)cc3)ccc2O)c1`, the IC50 in assay [1] amounted to 12 µM; in assay [2] it was 89 µM; in assay [3], 19 µM.
